Earlier results as cited in patent US20080108695A1, “Method of Treating Asthma, Allergic Rhinitis, and Skin Disorders” (Alcon Manufacturing Ltd., priority 2006, published 2008).

Tests used:
[1] = tested on: neutrophils; settings: potency compared with lipoxin A4; literature report of Lee et al.
[2] = molecular target: T1, ALXR (formyl peptide receptor FPRL-1) (Homo sapiens, UniProt P25090); settings: lipoxin A4 cognate receptor; background statement
T1 sequence (P25090 1-351): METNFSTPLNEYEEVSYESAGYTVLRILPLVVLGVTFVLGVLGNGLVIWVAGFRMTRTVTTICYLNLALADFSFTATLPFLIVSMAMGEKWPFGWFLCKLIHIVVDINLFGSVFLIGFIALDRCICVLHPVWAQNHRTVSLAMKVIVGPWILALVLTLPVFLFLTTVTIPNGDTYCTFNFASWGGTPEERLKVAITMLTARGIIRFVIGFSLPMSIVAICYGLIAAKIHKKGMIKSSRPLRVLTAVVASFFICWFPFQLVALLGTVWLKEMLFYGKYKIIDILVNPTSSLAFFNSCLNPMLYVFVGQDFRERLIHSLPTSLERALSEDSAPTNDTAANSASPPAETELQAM

[3] = molecular target: T2, cysLT1 (Homo sapiens, UniProt Q9Y271); settings: high affinity receptor for LTD4; background statement
T2 sequence (Q9Y271 1-337): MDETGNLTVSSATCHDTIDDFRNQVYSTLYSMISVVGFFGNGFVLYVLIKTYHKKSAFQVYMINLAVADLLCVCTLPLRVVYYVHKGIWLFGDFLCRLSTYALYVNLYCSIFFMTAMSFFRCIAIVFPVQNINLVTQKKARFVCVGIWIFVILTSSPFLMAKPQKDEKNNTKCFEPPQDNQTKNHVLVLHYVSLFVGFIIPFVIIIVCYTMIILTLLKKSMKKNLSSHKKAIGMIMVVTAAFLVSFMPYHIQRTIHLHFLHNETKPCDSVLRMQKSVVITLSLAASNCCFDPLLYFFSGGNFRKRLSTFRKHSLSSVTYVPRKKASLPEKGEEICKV

| binding affinity for ALXR [2] | binding affinity for cysLT1 [3] | Structure (SMILES) | inhibition of LTB4-induced chemotaxis of neutrophils [1] |
| --- | --- | --- | --- |
| – | – | COC(=O)CCC[C@H](O)[C@H](O)CO [Compound 1] | as potently as lipoxin A4 |
| – | – | CCCCC[C@H](O)[C@H](O)CO [Compound 2] | as potently as lipoxin A4 |
| nM affinity | nM affinity | CCCCC[C@H](O)/C=C/C=C\C=C\C=C\[C@@H](O)[C@@H](O)CCCC(=O)O [Lipoxin A4] | – |
